Tested on: Leishmania (L. major)
Assay: Leishmania protozoa proliferation inhibition assay
Type: cell-based
Conditions: for OD level (number of viable Leishmania protozoa): 48 hours at 27° C., absorbance 450 nm minus 630 nm; for IC50: calculated from the graphs of FIGS. 1 to 4 (concentration vs number of viable leishmania protozoa), read-out: Concentration inhibiting 50% leishmania proliferation
Procedure: After dissolving each of the obtained compounds in dimethylsulfoxide (hereinafter referred to as DMSO), the resultant was diluted by 9 steps in Medium 199 medium (Invitrogen) to the indicated concentration, filtrated with a membrane filter, and each of the filtration was made as a sample solution. […] By keeping the solution at 27° C., incubation was performed under 5% CO2, for 48 hours. Then, TetraColor ONE (tradename: Seikagaku Corporation) reagent was added thereto and further incubated for 6 hours. Then, the absorbance at a wavelength of 450 nm was measured for the 96-well microtiter plate with a microplate reader, the wave length of 630 nm was made as reference wave length, and in order to exclude background effect, the absorbance at 630 nm was excluded from the one at 450 nm, and the OD level was calculated as a level to indicate the number of viable Leishmania protozoa. The assay was performed by three wells at a time for each concentration of each sample, and the mean level was made as OD level. […] Amphotericin B was used as positive control. […] Inhibiting effect against […] protozoa for each sample was similar or more compared with that of Amtephotericin B.

[1] = Table 1, sample concentration 0.001 mg/ml
[2] = Table 1, sample concentration 0.016384 mg/ml
[3] = Table 1, sample concentration 0.04096 mg/ml
[4] = Table 1, sample concentration 0.1024 mg/ml
[5] = Table 1, sample concentration 0.256 mg/ml
[6] = Table 1, sample concentration 0.64 mg/ml
[7] = Table 1, sample concentration 1.6 mg/ml
[8] = Table 1, sample concentration 4 mg/ml
[9] = Table 1, sample concentration 10 mg/ml
[10] = Table 1, sample concentration 25 mg/ml, mean of three wells
[11] = Table 3, sample concentration 0.001 mg/ml
[12] = Table 3, sample concentration 0.002165 mg/ml
[13] = Table 3, sample concentration 0.0072171 mg/ml
[14] = Table 3, sample concentration 0.02406 mg/ml
[15] = Table 3, sample concentration 0.08019 mg/ml
[16] = Table 3, sample concentration 0.2673 mg/ml
[17] = Table 3, sample concentration 0.891 mg/ml
[18] = Table 3, sample concentration 2.97 mg/ml
[19] = Table 3, sample concentration 9.9 mg/ml
[20] = Table 3, sample concentration 33 mg/ml

Compound	OD level (number of viable Leishmania protozoa) [1]	OD level (number of viable Leishmania protozoa) [2]	OD level (number of viable Leishmania protozoa) [3]	OD level (number of viable Leishmania protozoa) [4]	OD level (number of viable Leishmania protozoa) [5]	OD level (number of viable Leishmania protozoa) [6]	OD level (number of viable Leishmania protozoa) [7]	OD level (number of viable Leishmania protozoa) [8]	OD level (number of viable Leishmania protozoa) [9]	IC50 [nM]	OD level (number of viable Leishmania protozoa) [11]	OD level (number of viable Leishmania protozoa) [12]	OD level (number of viable Leishmania protozoa) [13]	OD level (number of viable Leishmania protozoa) [14]	OD level (number of viable Leishmania protozoa) [15]	OD level (number of viable Leishmania protozoa) [16]	OD level (number of viable Leishmania protozoa) [17]	OD level (number of viable Leishmania protozoa) [18]	OD level (number of viable Leishmania protozoa) [19]	OD level (number of viable Leishmania protozoa) [20]	further results
CCn1c(=Cc2sc3ccccc3[n+]2CC)sc(=c2sc(=C3Sc4ccccc4N3C)c(=O)n2CC)c1=O.[Br-] [IV (e), 2-[[5-{5′-(3″-methyl-2″ (3″H)-benzothiazolylidene)-4′-oxo-3′-ethyl-2′-thiazolidinylidene)-4-oxo-3-ethyl-2-thiazolidinylidene]methyl]-3-ethylbenzothiazolium=bromide]	0.463	0.445	0.220	0.159	0.056	0.035	0.030	0.030	0.032	61											OD level (number of viable Leishmania protozoa) [10]: 0.033
CCn1c(=Cc2cccc[n+]2C)sc(=C2Sc3ccc(Cl)cc3N2C)c1=O.Cc1ccc(S(=O)(=O)[O-])cc1 [IV (f), 2-[{5-(5-chloro-3-methyl-2(3H)-benzothiazolylidene)-4-oxo-3-ethyl-2-thiazolidinylidene}methyl]-1-methylpyridinium=p-toluenesulfonate]										540	0.352	0.388	0.369	0.384	0.428	0.214	0.116	0.081	0.064	0.038	
CCn1c(=Cc2sc3ccc4ccccc4c3[n+]2C)sc(=C2Sc3ccccc3N2C)c1=O.Cc1ccc(S(=O)(=O)[O-])cc1 [IV (g), 2-[{5-(3-methyl-2(3H)-benzothiazolylidene)-4-oxo-3-ethyl-2-thiazolidinylidene}methyl]-3-methylbenzo[e]benzothiazolium=p-toluenesulfonate]										12											OD level (number of viable Leishmania protozoa) (Table 2, sample concentration 0.0001 mg/ml): 0.352; OD level (number of viable Leishmania protozoa) (Table 2, sample concentration 0.0007 mg/ml): 0.368; OD level (number of viable Leishmania protozoa) (Table 2, sample concentration 0.002 mg/ml): 0.253; OD level (number of viable Leishmania protozoa) (Table 2, sample concentration 0.008 mg/ml): 0.121; OD level (number of viable Leishmania protozoa) (Table 2, sample concentration 0.025 mg/ml): 0.055; OD level (number of viable Leishmania protozoa) (Table 2, sample concentration 0.084 mg/ml): 0.032; OD level (number of viable Leishmania protozoa) (Table 2, sample concentration 0.279 mg/ml): 0.030; OD level (number of viable Leishmania protozoa) (Table 2, sample concentration 0.93 mg/ml): 0.031; OD level (number of viable Leishmania protozoa) (Table 2, sample concentration 3.1 mg/ml): 0.029; OD level (number of viable Leishmania protozoa) (Table 2, sample concentration 2E−04 mg/ml): 0.448
C=CCn1c(=Cc2cccc[n+]2C)sc(=C2Sc3ccc(Cl)cc3N2C)c1=O.Cc1ccc(S(=O)(=O)[O-])cc1 [IV (h), 2-[{5-(5-chloro-3-methyl-2(3H)-benzothiazolylidene)-4-oxo-3-(2-propenyl)-2-thiazolidinylidene}methyl]-1-methylpyridinium=p-toluenesulfonate]										270	0.352	0.368	0.375	0.423	0.277	0.140	0.079	0.039	0.029	0.034	
CCn1c(=Cc2cccc[n+]2CC)sc(=C2Sc3ccccc3N2C)c1=O.[Cl-] [IV (i), 2-[{5-(3-methyl-2(3H)-benzothiazolylidene)-4-oxo-3-ethyl-2-thiazolidinylidene}methyl]-1-ethylpyridinium=chloride]	0.451	0.504	0.482	0.478	0.153	0.086	0.039	0.033	0.030	460											OD level (number of viable Leishmania protozoa) [10]: 0.026
CCn1c(=Cc2cc[n+](C)cc2)sc(=C2Sc3ccccc3N2C)c1=O.Cc1ccc(S(=O)(=O)[O-])cc1 [IV (j), 4-[(5-(3-methyl-2(3H)-benzothiazolylidene)-4-oxo-3-ethyl-2-thiazolidinylidene}methyl]-1-methylpyridinium=p-toluenesulfonate]	0.446	0.462	0.468	0.518	0.661	0.793	0.551	0.275	0.188	10000											OD level (number of viable Leishmania protozoa) [10]: 0.057
CN1C(=c2sc(=Cc3sc4ccccc4[n+]3C)n(CC3CCCO3)c2=O)Sc2ccccc21.Cc1ccc(S(=O)(=O)[O-])cc1 (stereo not shown) [IV (k), 2-[{5-(3-methyl-2(3H)-benzothiazolylidene)-4-oxo-3-(2-tetrahydrofuranyl)methyl-2-thiazolidinylidene}methyl]-1-methylbenzothiazolium=p-toluenesulfonate]										2600	0.338	0.356	0.344	0.341	0.351	0.348	0.371	0.434	0.154	0.029	
CN1C(=c2sc(=Cc3cccc[n+]3C)n(CC3CCCO3)c2=O)Sc2ccc3ccccc3c21.Cc1ccc(S(=O)(=O)[O-])cc1 (stereo not shown) [IV (l), 2-[{5-(3-methyl-2(3H)-benzobenzo[e]thiazolilidene)-4-oxo-3-(2-tetrahydrofuranyl)methyl-2-thiazolidinylidene}methyl]-1-methylpyridinium=p-toluenesulfonate]										1300	0.357	0.346	0.358	0.357	0.377	0.391	0.178	0.080	0.035	0.029	
